We go through 33 compounds from publication PMC3199943, “Screening the MayBridge Rule of 3 Fragment Library for Compounds That Interact with the Trypanosoma brucei myo-Inositol-3-Phosphate Synthase and/or Show Trypanocidal Activity” (Molecular Biology International, 2011).

In one test the test system is HeLa cells. Description: cells. To be noted: for viability at 500 µM / CC50: Homo sapiens, HeLa; for viability at 500 µM: 65 h; for CC50: read-out: HeLa ED50; for HeLa Cells Alamar Blue: Supplementary Table 1. The procedure, abridged: (§1)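 Seed HeLa/A549 at 2 × 10^4 cells/well in DMEM/10% FCS/2 mM L-Gln; treat ~65 h; add Alamar Blue, 5 h more.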
The target of another test is T1, TbINO1 (Trypanosoma brucei brucei, UniProt Q5QQ46).
T1 sequence (Q5QQ46 1-528): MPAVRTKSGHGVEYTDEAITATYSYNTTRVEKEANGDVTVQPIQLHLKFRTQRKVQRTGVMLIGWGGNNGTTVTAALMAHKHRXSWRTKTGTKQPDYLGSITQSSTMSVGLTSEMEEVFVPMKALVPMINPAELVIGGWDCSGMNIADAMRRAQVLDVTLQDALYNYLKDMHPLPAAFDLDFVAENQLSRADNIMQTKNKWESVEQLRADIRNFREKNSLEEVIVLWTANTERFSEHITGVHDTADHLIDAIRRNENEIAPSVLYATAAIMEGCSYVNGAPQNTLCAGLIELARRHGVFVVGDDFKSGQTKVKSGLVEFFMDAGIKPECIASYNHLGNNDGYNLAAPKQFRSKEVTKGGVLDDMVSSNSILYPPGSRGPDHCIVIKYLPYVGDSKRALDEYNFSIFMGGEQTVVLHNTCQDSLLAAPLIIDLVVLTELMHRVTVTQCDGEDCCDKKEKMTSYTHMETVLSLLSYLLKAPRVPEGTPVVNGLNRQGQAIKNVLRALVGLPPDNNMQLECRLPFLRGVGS
The test is described as follows: biochemical. Format: binding.

The subject of a further test is A549 cells. The test is described as follows: Cytotoxicity against A549 cells, Alamar Blue. Format: cell-based. To be noted: Supplementary Table 1, compound 0.5 mM, percentage of controls (n=1); for viability at 500 µM: Homo sapiens, A549, 65 h. Summed up: as §1
[1] abbreviates: read-out: HeLa Cells Alamar Blue.
Setting [2] is: read-out: Tb Ino1 Tm Shift [˚C].
Setting [3] is: Supplementary Table 1, compound 1mM, mean ± SD from Boltzman curve fitting, read-out: Tb Ino1 Tm Shift [˚C].
The mark [4] stands for this setting: read-out: HeLa Cells Alamar Blue (% survival).
The mark [5] stands for this setting: compound 0.5 mM, percentage of controls, mean ± SD (n=3) or SE (n=2).
[6] abbreviates: Supplementary Table 1, compound 1mM, mean ± SD from Boltzman curve fitting.

Where two headings read alike, the source gives them in different places.

As for `CC(=O)Nc1ccc2c(c1)CCC2` [compound 400, N1‐(2,3‐dihydro‐1H‐inden‐5‐yl)acetamide], the figures for the viability at 500 µM in the test with HeLa cells (setting [1]) and with A549 cells were 23.9 ± 13.6% and 99.3%, respectively. Further, the ΔTm at 1000 µM on TbINO1 (setting [2]) was determined as 0.12 ± 0.07 °C.
With `c1ccc(Sc2ccsc2)cc1` [compound 574, 3‐(phenylthio)thiophene], the results for the viability at 500 µM in the test with HeLa cells (setting [1]) and in the test on A549 cells were 98.8 ± 18.5% and 93.9%, respectively. Further, the ΔTm at 1000 µM at TbINO1 (setting [2]) was found to be 0.11 ± 0.07 °C.
Regarding `Nc1cccc(-c2cnco2)c1` [compound 267, 3‐(1,3‐oxazol‐5‐yl)aniline], the viability at 500 µM in the test with HeLa cells (setting [1]) worked out at 75 ± 15.2%; in the test on A549 cells, 79.8%. In addition, the ΔTm at 1000 µM on TbINO1 (setting [2]) was 0.13 ± 0.09 °C.
For `Cc1nc(C)c(CO)s1` [compound 147, (2,4‐dimethyl‐1,3‐thiazol‐5‐yl)methanol] the same measures were 93.6 ± 4.3%, 118% and 0.14 ± 0.08 °C.
Regarding `Nc1ccc(-c2ccco2)cc1` [compound 257, 4‐(2‐furyl)aniline], the values for the viability at 500 µM with HeLa cells (setting [1]) and in the test with A549 cells were 17 ± 12.7% and 75.7%, respectively. In addition, the CC50 in the test with HeLa cells stood at 114 ± 8 µM. The ΔTm at 1000 µM on TbINO1 (setting [2]) was 0.83 ± 0.04 °C.
Take `O=C(O)c1cc2ccccc2cn1` [compound 555, isoquinoline‐3‐carboxylic acid hydrate]: the viability at 500 µM with HeLa cells (setting [1]) is 92.1 ± 10.1%; with A549 cells, 100%. On TbINO1 (setting [3]), the ΔTm at 1000 µM was determined as 0.5 ± 0.09 °C.
As for `OCc1cccc2[nH]ccc12` [compound 163, 1H-indol-4-ylmethanol], the results for the viability at 500 µM in the test on HeLa cells (setting [1]), in the test with HeLa cells (setting [4]) and with A549 cells were 103 ± 8.7%, 103 ± 8.7% and 47%, respectively. Also, in the test on HeLa cells, the CC50 is 2500 ± 200 µM. Also, the ΔTm at 1000 µM on TbINO1 (read-out: TbIno1 Tm shift [°C]) worked out at 1.9 ± 0.06 °C.
In the case of `OCc1ccc2ccccc2n1` [compound 256, 2-quinolinylmethanol], the values for the viability at 500 µM in the test with HeLa cells (setting [1]), with HeLa cells (setting [4]) and in the test with A549 cells were 99.2 ± 19.5%, 99.2 ± 19.5% and 119%, respectively. For the same compound, the CC50 in the test on HeLa cells worked out at 836 ± 68 µM. Besides, the ΔTm at 1000 µM at TbINO1 (read-out: TbIno1 Tm shift [°C]) is 2.2 ± 0.06 °C.
With `c1cnc2c(n1)CCCC2` [compound 111, 5,6,7,8‐tetrahydroquinoxaline], the viability at 500 µM in the test on HeLa cells (setting [1]) worked out at 95.6 ± 0.8%; in the test with A549 cells, 96.1%. Besides, the ΔTm at 1000 µM on TbINO1 (setting [2]) was found to be 0.16 ± 0.06 °C.
For `COC(=O)c1sccc1N` [compound 241, methyl 3‐aminothiophene‐2‐carboxylate] the same measures were 94.5 ± 13%, 108% and 0.38 ± 0.09 °C.
The matching figures for `O=C(O)CCc1c[nH]c2ccccc12` [compound 533, 3‐(1H‐indol‐3‐yl)propanoic acid]: 94.9 ± 6%, 67.2% and 0.73 ± 0.07 °C.
The matching figures for `COC(=O)c1ccc(C)c(Cl)c1` [compound 484, methyl 3‐chloro‐4‐methylbenzoate]: 112 ± 12%, 120% and 0.1 ± 0.07 °C.
Regarding `NC(=O)c1ccccc1C(F)(F)F` [compound 532, 2‐(trifluoromethyl)benzamide], the viability at 500 µM in the test with HeLa cells (setting [1]) amounted to 88.3 ± 6.5%; in the test with A549 cells, 59.4%. Also, the ΔTm at 1000 µM at TbINO1 (setting [2]) amounted to 0.43 ± 0.07 °C.
With `O=C(O)c1ccc2ccccc2n1` [compound 369, 2‐quinolinecarboxylic acid], the viability at 500 µM is 81.3 ± 14.1% with HeLa cells (read-out: HeLa Cells Alamar Blue, Supplementary Table 1, compound 0.5 mM, percentage of controls, mean ± SD (n=3) or SE (n=2)) and 152% in the test on A549 cells. Besides, the ΔTm at 1000 µM at TbINO1 (setting [3]) worked out at 0.1 ± 0.67 °C.
For the compound `Cc1ccc(O)c(C)n1` [compound 64, 2,6‐dimethylpyridin‐3‐ol], the viability at 500 µM in the test with HeLa cells (setting [1]) is 103 ± 13.2%; in the test on A549 cells, 80.6%. Also, the ΔTm at 1000 µM on TbINO1 (setting [2]) was determined as 0.13 ± 0.07 °C.
In the case of `N#Cc1cccc(N2CCCC2)c1` [compound 362, 3‐pyrrolidin‐1‐ylbenzonitrile], the viability at 500 µM with HeLa cells (setting [1]) was 97.4 ± 19.9%; with A549 cells, 63.3%. The ΔTm at 1000 µM on TbINO1 (setting [2]) was 0.05 ± 0.07 °C.
As for `CC(=O)c1ccc2c(c1)OCCO2` [compound 430, 1‐(2,3‐dihydro‐1,4‐benzodioxin‐6‐yl)ethan‐1‐one], the “HeLa Cells Alamar Blue” value with HeLa cells (setting [5]) is 91.1 ± 12.8 percentage of controls. On TbINO1 (setting [6]), the “Tb Ino1 Tm Shift [˚C]” value turned out to be 0.13 ± 0.08 °C. For the same compound, the “A549 Cells Alamar Blue” value with A549 cells is listed as 101.8 percentage of controls.
On to `O=C(O)c1ccc2ncccc2c1` [compound 370, quinoline‐6‐carboxylic acid], for which the values for the viability at 500 µM in the test with HeLa cells (setting [1]) and with A549 cells were 109 ± 13.1% and 152%, respectively. Besides, the ΔTm at 1000 µM at TbINO1 (setting [2]) turned out to be 0.57 ± 0.04 °C.
With `OCc1nc2ccccc2[nH]1` [compound 169, 1H‐benzimidazol‐2‐ylmethanol], the viability at 500 µM is 121 ± 15% with HeLa cells (setting [1]) and 81.7% with A549 cells. In addition, on TbINO1 (setting [2]), the ΔTm at 1000 µM amounted to 0.04 ± 0.07 °C.
In the case of `NCc1ccc(-c2ccco2)cc1` [compound 373, [4‐(2‐furyl)phenyl]methylamine], the viability at 500 µM amounted to 82.5 ± 14.3% in the test with HeLa cells (setting [1]) and 63.4% in the test with A549 cells. On TbINO1 (setting [2]), the ΔTm at 1000 µM was 0.48 ± 0.05 °C.
Regarding `Cc1cc(Cl)ccc1C(=O)O` [compound 350, 4‐chloro‐2‐methylbenzoic acid], the viability at 500 µM is 108 ± 9.9% in the test with HeLa cells (setting [1]) and 160% in the test with A549 cells. Further, the ΔTm at 1000 µM on TbINO1 (setting [2]) stood at 1.05 ± 0.07 °C.
`CC(=O)c1ccc(F)c(F)c1` [compound 234, 1‐(3,4‐difluorophenyl)ethan‐1‐one]: the viability at 500 µM with HeLa cells (setting [1]) turned out to be 90.3 ± 14%; in the test with A549 cells, 73.9%. For the same compound, on TbINO1 (setting [2]), the ΔTm at 1000 µM was 0.14 ± 0.08 °C.
On to `CC(C)(N)CN1CCCC1` [compound 142, 2‐methyl‐1‐(1‐pyrrolidinyl)‐2‐propanamine], for which the “HeLa Cells Alamar Blue” value in the test with HeLa cells (setting [5]) is given as 89.9 ± 8.9 percentage of controls. The “Tb Ino1 Tm Shift [˚C]” value at TbINO1 (setting [6]) was 0.13 ± 0.07 °C. Also, in the test on A549 cells, the “A549 Cells Alamar Blue” value is recorded as 96.3 percentage of controls.
`Cn1cncc1C#N` [compound 15, 1‐methyl‐1H‐imidazole‐5‐carbonitrile]: the viability at 500 µM in the test with HeLa cells (setting [1]) was 101 ± 9.5%; in the test on A549 cells it was 90%. Moreover, the ΔTm at 1000 µM on TbINO1 (setting [2]) stood at 0.08 ± 0.07 °C.
On to `Cl.c1ccc2c(c1)CCNC2` [compound 343, 1,2,3,4‐tetrahydroisoquinoline hydrochloride], for which the “HeLa Cells Alamar Blue” value with HeLa cells (setting [5]) is 83.5 ± 7.8 percentage of controls. The “Tb Ino1 Tm Shift [˚C]” value at TbINO1 (setting [6]) was 0.37 ± 0.06 °C. The “A549 Cells Alamar Blue” value in the test on A549 cells was 86.3 percentage of controls.
For `N#CCOc1ccc(C(F)(F)F)cn1` [compound 634, 2‐{[5‐(trifluoromethyl)‐2‐pyridyl]oxy}acetonitrile] the same measures were 73.3 ± 1.6 percentage of controls, 0.24 ± 0.09 °C and 87.2 percentage of controls.
As for `Nc1ccc(F)cc1F` [compound 88, 2,4‐difluoroaniline], the viability at 500 µM was determined as 87.6 ± 10.6% in the test on HeLa cells (setting [1]) and 132% with A549 cells. For the same compound, on TbINO1 (setting [2]), the ΔTm at 1000 µM was determined as 1.11 ± 0.07 °C.
Consider `N#Cc1cccc(-n2ccnc2)c1` [compound 339, 3‐(1H‐imidazol‐1‐yl)benzonitrile], for which the viability at 500 µM came to 89.8 ± 5.8% in the test on HeLa cells (setting [1]) and 135% in the test on A549 cells. Further, the ΔTm at 1000 µM on TbINO1 (setting [2]) was 0.39 ± 0.06 °C.
In the case of `C#CCN1CCS(=O)(=O)CC1` [compound 379, 4‐(Prop‐2‐ynyl)thiomorpholine 1,1‐dioxide], the “HeLa Cells Alamar Blue” value with HeLa cells (setting [5]) is recorded as 95.6 ± 12.9 percentage of controls. Further, the “Tb Ino1 Tm Shift [˚C]” value at TbINO1 (setting [6]) turned out to be 0.32 ± 0.08 °C. Further, the “A549 Cells Alamar Blue” value in the test on A549 cells is on record as 154 percentage of controls.
The matching figures for `CCOC(=O)c1[nH]c(C)c(CC)c1C` [compound 594, ethyl 4‐ethyl‐3,5‐dimethyl‐1H‐pyrrole‐2‐carboxylate]: 79.8 ± 6.6 percentage of controls, 0.17 ± 0.08 °C and 59.9 percentage of controls.
Consider `Cc1nc(C(C)(C)C)cs1` [compound 229, 4‐(tert‐butyl)‐2‐methyl‐1,3‐thiazole], for which the viability at 500 µM in the test on HeLa cells (setting [1]) is 108 ± 11.8%; in the test with A549 cells it was 65.6%. Also, the ΔTm at 1000 µM on TbINO1 (setting [2]) was found to be 0.23 ± 0.07 °C.
Regarding `OCc1ccc(-n2cccc2)cc1` [compound 372, [4-(1H-pyrrol-1-yl)phenyl]methanol], the viability at 500 µM in the test on HeLa cells (setting [1]) was 94.9 ± 19.4%; with HeLa cells (setting [4]) it was 94.9 ± 19.4%; in the test on A549 cells it was 52.9%. For the same compound, in the test with HeLa cells, the CC50 amounted to 3300 ± 210 µM. For the same compound, the ΔTm at 1000 µM at TbINO1 (read-out: TbIno1 Tm shift [°C]) is 3.12 ± 0.04 °C.
Turning to `CN(C)CCOc1ccccc1CO` [compound 593, {2‐[2‐(dimethylamino)ethoxy]phenyl}methanol], the “HeLa Cells Alamar Blue” value in the test on HeLa cells (setting [5]) was 77.9 ± 13.5 percentage of controls. The “Tb Ino1 Tm Shift [˚C]” value on TbINO1 (setting [6]) is 0.13 ± 0.06 °C. Moreover, the “A549 Cells Alamar Blue” value with A549 cells is 59.2 percentage of controls.
